# Literature values in patent US20130236544A1, “STABLE PHARMACEUTICAL COMPOSITIONS OF FESOTERODINE” (DR. REDDY'S LABORATORIES LTD., priority 2012, published 2013).
# Counter-ions that a name gives are not always drawn.
smiles,measurement,value
"CC(C)C(=O)Oc1ccc(CO)cc1[C@H](CCN(C(C)C)C(C)C)c1ccccc1 [Fesoterodine fumarate, isobutyric acid 2-((R)-3-diisopropylammonium-1-phenylpropyl)-4-(hydroxymethyl) phenyl ester hydrogen fumarate]",solubility in water,freely soluble in water
